Measured values published in ChEMBL document CHEMBL6087422, “A promising class of antiprotozoal agents, design and synthesis of novel Pyrimidine-Cinnamoyl hybrids” (Eur J Med Chem, 2025).
Activity calls are given as the source filed them. The rule behind the calls is not given here.

Key:
Plasmodium falciparum [1] = experiment: Antimalarial activity against […] Plasmodium falciparum 3D7 assessed as growth inhibition by isotopic micro drug susceptibility assay; assay type: functional, organism-based
Plasmodium falciparum [2] = experiment: Antimalarial activity against chloroquine-sensitive Plasmodium falciparum W2 assessed as growth inhibition by isotopic micro drug susceptibility assay; assay type: functional, organism-based
Plasmodium falciparum [3] = experiment: Antimalarial activity against chloroquine-sensitive Plasmodium falciparum NF54 assessed as inhibition of parasite growth measured after 24 hrs by parasite lactate dehydrogenase (pLDH) assay; assay type: functional, organism-based; conditions: NF54, 24 h
[4] = Haemolytic activity in human RBC assessed as haemolysis at 50 uM for 48 hrs by haemolysis assay; assay type: toxicity, cell-based, Erythrocyte; conditions: human red blood cells, read-out: Activity
[5] = Cytotoxicity against HEK293 cells assessed as cell viability incubated for 48 hrs by MTT assay; assay type: toxicity, cell-based; conditions: human
Plasmodium falciparum [6] = experiment: Binding affinity to 6xHis tagged recombinant Plasmodium falciparum Hsp70-z extracted from Escherichia coli by SPR analysis
[7] = Binding affinity to 6xHis tagged recombinant Plasmodium falciparum Hsp70-z extracted from Escherichia coli assessed as dissociation constant (KD) incubated for 10 mins by SPR analysis
[8] = Binding affinity to 6xHis tagged recombinant Plasmodium falciparum Hsp70-z extracted from Escherichia coli assessed as dissociation rate constant (Kd) incubated for 10 mins by SPR analysis
Plasmodium falciparum [9] = experiment: Antimalarial activity against chloroquine-sensitive Plasmodium falciparum NF54 assessed as reduction of schizonts at IC50 concentration incubated for 48 hrs by microscopic analysis; assay type: functional, organism-based
Plasmodium falciparum [10] = experiment: Binding affinity to 6xHis tagged recombinant Plasmodium falciparum Hsp70-z extracted from Escherichia coli assessed as association rate constant (Ka) incubated for 3 mins by SPR analysis
[11] = Binding affinity to 6xHis tagged recombinant Plasmodium falciparum Hsp70-1 extracted from Escherichia coli assessed as dissociation constant (KD) incubated for 10 mins by SPR analysis
Plasmodium falciparum [12] = experiment: Binding affinity to 6xHis tagged recombinant Plasmodium falciparum Hsp70-1 extracted from Escherichia coli assessed as association rate constant (Ka) incubated for 3 mins by SPR analysis
Plasmodium falciparum [13] = experiment: Binding affinity to 6xHis tagged recombinant Plasmodium falciparum Hsp70-1 extracted from Escherichia coli by SPR analysis
[14] = Binding affinity to 6xHis tagged recombinant Plasmodium falciparum Hsp70-1 extracted from Escherichia coli assessed as dissociation rate constant (Kd) incubated for 10 mins by SPR analysis
Plasmodium falciparum [15] = experiment: Antimalarial activity against chloroquine-sensitive Plasmodium falciparum NF54 assessed as reduction of second generation rings at IC50 concentration incubated for 48 hrs by microscopic analysis; assay type: functional, organism-based
[16] = Selectivity index, ratio of IC50 for cytotoxicity against HEK293 cells to IC50 for antimalarial activity against chloroquine sensitive Plasmodium falciparum NF54 assessed as inhibition of parasite growth measured after 24 hrs by parasite lactate dehydrogenase (pLDH) assay; assay type: toxicity, cell-based; conditions: human, HEK293 cells versus Plasmodium falciparum NF54, read-out: Ratio IC50
Plasmodium berghei = experiment: In vivo antiplasmodial activity against Plasmodium berghei assessed as growth inhibition at 100 mg/kg measured after 21 days relative to control; assay type: functional; set-up: scale not given: the % may be the effect or the level left; conditions: time 21 day
Plasmodium falciparum [17] = experiment: Antimalarial activity against chloroquine-resistant intra-erythrocytic stage Plasmodium falciparum; assay type: functional, organism-based

Compound	IC50 (Plasmodium falciparum [3]) [nM]	hemolysis at 48 h, 50 µM [4] [%]	further results
CO[C@H]1/C=C/O[C@@]2(C)Oc3c(C)c(O)c4c(O)c(c(/C=N/N5CCN(C)CC5)c(O)c4c3C2=O)NC(=O)/C(C)=C\C=C\[C@H](C)[C@H](O)[C@@H](C)[C@@H](O)[C@@H](C)[C@H](OC(C)=O)[C@@H]1C [RIFAMPIN]			IC50 (Plasmodium falciparum [1]): 3200 nM; IC50 (Plasmodium falciparum [2]): 1300 nM
O=C(/C=C/c1ccccc1)N1CCN(c2nc(-c3cccnc3)cc(-c3ccoc3)n2)CC1	5000	0.01	
CCc1ccc(-c2cc(-c3ccc(OC)c(OC)c3)nc(N3CCN(C(=O)/C=C/c4ccc(OC)cc4)CC3)n2)cc1	180	0.01	IC50 at 48 h [5]: 3360 nM; Activity (Plasmodium falciparum [6]): Dose-dependent-effect; Kd [7]: 15.7 nM; Kd [8]: 9.79 10^-2(1/s); Activity (Plasmodium falciparum [9]): Active; Ka (Plasmodium falciparum [10]): 6.24 10^6/M.s; Kd [11]: 1.57 nM; Ka (Plasmodium falciparum [12]): 5.92 10^6/M.s; Activity (Plasmodium falciparum [13]): Dose-dependent-effect; Kd [14]: 9.29 10^-2(1/s); Activity (Plasmodium falciparum [15]): Active; selectivity ratio at 24 h [16]: 18.6
COc1ccc(-c2cc(-c3ccc(C)cc3)nc(N3CCN(C(=O)/C=C/c4ccccc4)CC3)n2)cc1	2720	0.01	
CCN(CC)CCCC(C)Nc1ccnc2cc(Cl)ccc12 (configuration not stated) [CHLOROQUINE]		0.01	
CCc1ccc(-c2cc(-c3ccc(OC)c(OC)c3)nc(N3CCN(C(=O)/C=C/c4ccc(Cl)cc4)CC3)n2)cc1	200	0.01	IC50 at 48 h [5]: 870 nM; selectivity ratio at 24 h [16]: 4.34
COc1ccc(-c2cc(-c3ccc(OC)cc3)nc(N3CCN(C(=O)/C=C/c4ccccc4)CC3)n2)cc1	4090	0.01	
COc1cc(/C=C/C(=O)CC(=O)/C=C/c2ccc(O)c(OC)c2)ccc1O [CURCUMIN]			Activity (Plasmodium berghei): 100%; IC50 (Plasmodium falciparum [17]): ~5000 nM
CC[C@@]1(O)C(=O)OCc2c1cc1n(c2=O)Cc2cc3ccccc3nc2-1 [CAMPTOTHECIN]			IC50 at 48 h [5]: 200 nM
COc1ccc(-c2cc(-c3ccc(C)cc3)nc(N3CCN(C(=O)/C=C/c4ccc(OC)c(OC)c4)CC3)n2)cc1	600	0.01	IC50 at 48 h [5]: 930 nM; selectivity ratio at 24 h [16]: 1.54
COc1ccc(/C=C/C(=O)N2CCN(c3nc(-c4ccc(OC)cc4)cc(-c4ccc(OC)cc4)n3)CC2)cc1	5000	0.01	
COc1ccc(-c2cc(-c3ccc(OC)cc3)nc(N3CCN(C(=O)/C=C/c4ccc[nH]4)CC3)n2)cc1	7430	0.01	IC50 at 48 h [5]: 3690 nM; selectivity ratio at 24 h [16]: 0.5
CCc1ccc(-c2cc(-c3ccc(OC)c(OC)c3)nc(N3CCN(C(=O)/C=C/c4ccccc4)CC3)n2)cc1	210	0.01	IC50 at 48 h [5]: 3550 nM; Activity (Plasmodium falciparum [6]): Dose-dependent-effect; Kd [7]: 10.8 nM; Kd [8]: 8.97 10^-2(1/s); Activity (Plasmodium falciparum [9]): Active; Ka (Plasmodium falciparum [10]): 8.28 10^6/M.s; Kd [11]: 9.69 nM; Ka (Plasmodium falciparum [12]): 7.97 10^6/M.s; Activity (Plasmodium falciparum [13]): Dose-dependent-effect; Kd [14]: 7.72 10^-2(1/s); Activity (Plasmodium falciparum [15]): Active; selectivity ratio at 24 h [16]: 16.8
CCc1ccc(-c2cc(-c3ccc(OC)c(OC)c3)nc(N3CCN(C(=O)/C=C/c4ccc(C)cc4)CC3)n2)cc1	1560	0.01	
COc1ccc(-c2cc(-c3ccc(Cl)cc3)nc(N3CCN(C(=O)/C=C/c4ccccc4)CC3)n2)cc1	6020	0.01	
COc1ccc(-c2cc(-c3ccc(C)cc3)nc(N3CCN(C(=O)/C=C/c4ccc(Cl)cc4)CC3)n2)cc1	1720	0.01	
COc1ccc(-c2cc(-c3ccc(OC)cc3)nc(N3CCN(C(=O)/C=C/c4ccc(OC)c(OC)c4)CC3)n2)cc1	5000	0.01	
C=C[C@H]1CN2CC[C@H]1C[C@H]2[C@H](O)c1ccnc2ccc(OC)cc12 [QUININE]	110	0.01	selectivity ratio at 24 h [16]: 1240
COc1ccc(-c2cc(-c3ccc(OC)cc3)nc(N3CCN(C(=O)/C=C/c4ccc(C)cc4)CC3)n2)cc1	3580	0.01	
COc1ccc(-c2cc(-c3ccc(C)cc3)nc(N3CCN(C(=O)/C=C/c4ccc(C)cc4)CC3)n2)cc1	2330	0.01	
COc1ccc(-c2cc(-c3ccc(C)cc3)nc(N3CCNCC3)n2)cc1	5000	0.01	
Cc1ccc(/C=C/C(=O)N2CCN(c3nc(-c4ccc(Cl)cc4)cc(-c4cccnc4)n3)CC2)cc1	3670	0.01	
COc1ccc(-c2cc(-c3ccc(OC)cc3)nc(N3CCN(C(=O)/C=C/c4ccc(Cl)cc4)CC3)n2)cc1	2710	0.01	
CCc1ccc(-c2cc(-c3ccc(OC)c(OC)c3)nc(N3CCN(C(=O)/C=C/c4ccc[nH]4)CC3)n2)cc1	720	0.01	
